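Assay format: 96-well plates, 48-hour exposure. Abbreviation: GI50, concentration required for 50% inhibition of growth.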 The source made the active and inactive calls. Rule as the data show it: active = GI50 up to about 1.1 µM and inactive = higher.
Assays:
Test in all cases: inhibition of tumour cell growth, NCI panel, 48 h
A549 = system: A549
LOX IMVI = system: LOX IMVI
OVCAR-8 = system: OVCAR-8
HT-29 = system: HT-29
EKVX = system: EKVX
SW-620 = system: SW-620
SF-268 = system: SF-268
HOP-92 = system: HOP-92
NCI-H460 = system: NCI-H460
HCT-116 = system: HCT-116
OVCAR-5 = system: OVCAR-5
786-0 = system: 786-0
UO-31 = system: UO-31
K562 = system: K562
NCI-H23 = system: NCI-H23
HCC 2998 = system: HCC 2998

Measured: GI50

CCOP(=O)(OCC)/C(C#N)=C/c1ccco1
inactive: A549 > 100 µM | LOX IMVI > 100 µM | OVCAR-8 > 100 µM | HT-29 > 100 µM | EKVX > 100 µM | SW-620 > 100 µM | SF-268 > 100 µM | HOP-92 > 100 µM | NCI-H460 > 100 µM | HCT-116 > 100 µM | OVCAR-5 > 100 µM | 786-0 > 100 µM | UO-31 > 100 µM | K562 > 100 µM | NCI-H23 > 100 µM | HCC 2998 > 100 µM

N=C(N)N/N=C(/c1nc2ccc([N+](=O)[O-])cc2[nH]c1=O)C(O)c1ccc([N+](=O)[O-])cc1 (stereo not given)
inactive: A549 60.8 µM | LOX IMVI 38.5 µM | OVCAR-8 > 100 µM | HT-29 54.1 µM | SW-620 > 100 µM | SF-268 > 100 µM | HOP-92 > 100 µM | NCI-H460 51.3 µM | HCT-116 > 100 µM | OVCAR-5 > 100 µM | 786-0 > 100 µM | UO-31 3.03 µM | K562 > 100 µM | NCI-H23 > 100 µM | HCC 2998 28.5 µM

O=C(CSc1nnc(Cc2ccccc2)o1)Nc1ccc([N+](=O)[O-])cc1
inactive: A549 59.4 µM | LOX IMVI 61.7 µM | OVCAR-8 > 100 µM | HT-29 48 µM | SF-268 > 100 µM | NCI-H460 > 100 µM | HCT-116 > 100 µM | OVCAR-5 > 100 µM | 786-0 > 100 µM | UO-31 74.1 µM | K562 40.2 µM | NCI-H23 89.7 µM | HCC 2998 > 100 µM

O=[N+]([O-])c1ccc(Cc2nc3ccccc3s2)cc1
inactive: A549 > 100 µM | OVCAR-8 91.4 µM | HT-29 66.5 µM | EKVX > 100 µM | SW-620 59.3 µM | SF-268 74.1 µM | HOP-92 > 100 µM | NCI-H460 > 100 µM | HCT-116 38.9 µM | OVCAR-5 > 100 µM | 786-0 > 100 µM | UO-31 > 100 µM | K562 43.7 µM | NCI-H23 > 100 µM | HCC 2998 > 100 µM

CSC(C1c2ccccc2N(C)c2[nH]c(=O)n(C)c(=O)c21)S(=O)(=O)c1ccc(C)cc1 (stereo not given)
inactive: A549 > 100 µM | LOX IMVI > 100 µM | OVCAR-8 > 100 µM | HT-29 > 100 µM | EKVX 33.6 µM | SW-620 > 100 µM | SF-268 > 100 µM | HOP-92 > 100 µM | HCT-116 68.2 µM | OVCAR-5 > 100 µM | 786-0 > 100 µM | UO-31 > 100 µM | K562 43.6 µM | NCI-H23 54.8 µM | HCC 2998 > 100 µM

Cn1cc2c(n1)c(N/N=C/c1ccccc1)nn1nnnc21
inactive: A549 > 100 µM | LOX IMVI > 100 µM | OVCAR-8 > 100 µM | HT-29 > 100 µM | EKVX > 100 µM | SW-620 > 100 µM | SF-268 > 100 µM | HOP-92 > 100 µM | NCI-H460 > 100 µM | HCT-116 > 100 µM | 786-0 > 100 µM | UO-31 > 100 µM | K562 > 100 µM | NCI-H23 > 100 µM | HCC 2998 > 100 µM

O=C1[C@@H]2C(c3ccccc3[N+](=O)[O-])=[N+](c3ccccc3)O[C@@H]2C(=O)N1c1ccc(Cc2ccc(N3C(=O)[C@H]4C(c5ccccc5[N+](=O)[O-])=[N+](c5ccccc5)O[C@H]4C3=O)cc2)cc1
inactive: A549 > 100 µM | LOX IMVI > 100 µM | OVCAR-8 > 100 µM | HT-29 > 100 µM | EKVX > 100 µM | SW-620 > 100 µM | SF-268 > 100 µM | HOP-92 49 µM | NCI-H460 > 100 µM | HCT-116 > 100 µM | OVCAR-5 > 100 µM | 786-0 > 100 µM | UO-31 > 100 µM | K562 > 100 µM | NCI-H23 > 100 µM | HCC 2998 > 100 µM

O=c1c2ccccc2nc(-c2ccccc2)n1NC(=S)Nc1cccc(Cl)c1
inactive: A549 > 100 µM | LOX IMVI > 100 µM | OVCAR-8 > 100 µM | HT-29 > 100 µM | SW-620 > 100 µM | SF-268 43.7 µM | HOP-92 31.8 µM | NCI-H460 > 100 µM | HCT-116 95.7 µM | OVCAR-5 > 100 µM | 786-0 68.1 µM | UO-31 89.1 µM | K562 > 100 µM | NCI-H23 > 100 µM

COc1ccc(NCC#N)cc1
inactive: A549 > 100 µM | LOX IMVI > 100 µM | OVCAR-8 > 100 µM | HT-29 > 100 µM | EKVX > 100 µM | SW-620 > 100 µM | SF-268 > 100 µM | HOP-92 > 100 µM | NCI-H460 > 100 µM | HCT-116 > 100 µM | OVCAR-5 > 100 µM | 786-0 25.1 µM | UO-31 > 100 µM | K562 > 100 µM | NCI-H23 > 100 µM | HCC 2998 > 100 µM

COc1cccc(NC(=O)CC(=O)N2NC(c3ccccc3)C(/N=N/c3cccc(C(=O)O)c3)C2=O)c1 (stereo not given)
inactive: A549 > 100 µM | LOX IMVI > 100 µM | OVCAR-8 > 100 µM | HT-29 > 100 µM | EKVX > 100 µM | SW-620 > 100 µM | SF-268 > 100 µM | HOP-92 > 100 µM | NCI-H460 > 100 µM | HCT-116 > 100 µM | OVCAR-5 > 100 µM | 786-0 > 100 µM | UO-31 27.5 µM | NCI-H23 > 100 µM | HCC 2998 > 100 µM

CC1(C)OC(=O)C(C#N)=C1/C=C/c1coc2ccc(Cl)cc2c1=O
inactive: A549 45.7 µM | LOX IMVI 18.9 µM | OVCAR-8 25.7 µM | HT-29 > 10 µM | EKVX 47 µM | SW-620 39.2 µM | SF-268 29.5 µM | NCI-H460 18.8 µM | HCT-116 33 µM | OVCAR-5 45.1 µM | 786-0 37.2 µM | UO-31 27.1 µM | K562 27.5 µM | NCI-H23 21 µM | HCC 2998 34.8 µM

O=C(/C=N/c1ccccc1C(=O)[O-])c1cccs1.O=C(/C=N/c1ccccc1C(=O)[O-])c1cccs1.[Zn+2]
inactive: A549 73.8 µM | LOX IMVI 27.4 µM | OVCAR-8 36.1 µM | HT-29 > 100 µM | SW-620 67.5 µM | SF-268 27.4 µM | HOP-92 19.6 µM | NCI-H460 71.8 µM | HCT-116 > 100 µM | OVCAR-5 24.7 µM | 786-0 > 100 µM | UO-31 > 100 µM | K562 29.2 µM | NCI-H23 88.3 µM | HCC 2998 > 10 µM

COC(=O)/C=C1\CCC2[C@@H](C(=O)CC3[C@]2(C)CCC[C@@]3(C)C(=O)OC)C1C (stereo not given in full)
inactive: A549 20.2 µM | OVCAR-8 15.1 µM | HT-29 24 µM | EKVX 27.3 µM | SW-620 26.6 µM | SF-268 19.7 µM | HOP-92 21 µM | NCI-H460 15.7 µM | HCT-116 18.5 µM | OVCAR-5 33 µM | 786-0 31.3 µM | UO-31 21.7 µM | K562 15 µM | NCI-H23 > 10 µM | HCC 2998 34.6 µM
